Assays:
white blood cells = experiment: Therapeutical effect on white blood cells of mice pretreated with CTX; type: in vivo, CDF1 male mice; settings: for number of white blood cell account, Day 6: Day 6: after CTX 30 mg/kg IP daily for 6 days, before therapeutical treatment started on 7th day
Protocol: This activity was determined using CDF1 male mice: mice were grouped and treated with daily CTX IP injection of 30 mg/kg for 6 days. […] Positive control group was treated with daily subcutaneously injection of 20 μg/kg G-CSF. Peripheral blood samples were collected and blood cells counted on the 10th day.

[1] = tested on: white blood cells of beagle dog; experiment: Activity of increasing WBC in dogs; type: in vivo; settings: for WBC: blood count day 5; for % increase (compared with the control): day 5
Protocol: The effect of the test compounds was tested on beagle dog with a daily IV injection at different doses for four days. The blood account was done at day 5.

[2] = tested on: mouse peripheral white blood cells; experiment: Activity of increasing white blood cells (WBC) in mice; type: in vivo, CDF1 male mice; settings: peripheral blood on day 7
Protocol: This activity was determined using CDF1 male mice (18-20 g): mice were grouped as: vehicle, 30 mg/kg cyclophosphamide (CTX), 15 mg/kg test compounds. The mice were treated by IP injection: test compounds on day 1, 3, and 5 for three doses, vehicle and CTX daily for 6 days. On day 7, peripheral blood samples were collected and blood cells counted.

Molecule: COc1ccc(-n2c3cssc-3c(NC(=O)c3cc(C(F)(F)F)cc(C(F)(F)F)c3)c2=O)c(OC)c1 [compound 0058, N-[4-(2,4-Dimethoxy-phenyl)-5-oxo-4,5-dihydro-[1,2]dithiolo[4,3-b]pyrrol-6-yl]-3,5-bis-trifluoromethyl-benzamide]
- number of white blood cell account, Day 6 (white blood cells): 2.1 ± 0.8 ×10^9/L
- number of white blood cell account, Day 10 (white blood cells; Day 10: CTX 30 mg/kg x 6 days, then test compound 15 mg/kg daily for 3 days from day 7): 16.2 ± 2.1 ×10^9/L
- WBC ([1]; 1 mg/kg daily IV for four days): 13.0 ± 2.0 ×10^9/L
- % increase (compared with the control) ([1]; 1 mg/kg daily IV for four days): 15.9%
- WBC ([1]; 2 mg/kg daily IV for four days): 16.8 ± 1.0 ×10^9/L
- % increase (compared with the control) ([1]; 2 mg/kg daily IV for four days): 48.2%
- WBC ([1]; 4 mg/kg daily IV for four days): 21.5 ± 4.1 ×10^9/L
- % increase (compared with the control) ([1]; 4 mg/kg daily IV for four days): 90.3%
- WBC ([1]; 8 mg/kg daily IV for four days): 28.8 ± 7.0 ×10^9/L
- % increase (compared with the control) ([1]; 8 mg/kg daily IV for four days): 154.9%
- effect on white blood accounts in dogs (in words) ([1]; daily IV, 1-8 mg/kg, four days): significantly increased white blood accounts
- WBC ([2]; test compound 15 mg/kg IP on day 1, 3 and 5): 23.9 ± 8.9 ×10^9/L

Molecule: O=P1(N(CCCl)CCCl)NCCCO1 (centres unmarked) [CTX, cyclophosphamide, reference compound]
- number of white blood cell account, Day 6 (white blood cells): 1.5 ± 0.2 ×10^9/L
- number of white blood cell account, Day 10 (white blood cells; Day 10: CTX 30 mg/kg IP daily for 6 days only): 4.8 ± 0.8 ×10^9/L
- WBC ([2]; CTX 30 mg/kg IP daily for 6 days): 1.41 ± 0.50 ×10^9/L

B1: G-CSF: granulocyte-colony stimulating factor, protein that selectively stimulates production of white blood cells; positive control (protein, chains of the INN, looked up)
chain: MTPLGPASSLPQSFLLKCLEQVRKIQGDGAALQEKLCATYKLCHPEELVLLGHSLGIPWAPLSSCPSQALQLAGCLSQLHSGLFLYQGLLQALEGISPELGPTLDTLQLDVADFATTIWQQMEELGMAPALQPTQGAMPAFASAFQRRAGGVLVASHLQSFLEVSYRVLRHLAQP
modifications: N-terminal methionine, non-glycosylated
- number of white blood cell account, Day 6 (white blood cells): 1.8 ± 0.7 ×10^9/L
- number of white blood cell account, Day 10 (white blood cells; Day 10: CTX 30 mg/kg x 6 days, then G-CSF 20 μg/kg daily subcutaneously (positive control)): 14.7 ± 1.8 ×10^9/L

— US8071637B2, “Dithiolopyrrolones compounds and their therapeutic applications” (Welichem Biotech Inc., priority 2006, dated 2011)
